For experiment [1], the system named is Mycobacterium tuberculosis. The experiment is described as follows: Antimycobacterial activity against rifampicin resistant Mycobacterium tuberculosis H37Rv ATCC 35838 at 1 ug/ml. Type of experiment: functional.
For experiment [2], the system named is Mycobacterium tuberculosis. The experiment is described as follows: Antimycobacterial activity against rifampicin resistant Mycobacterium tuberculosis H37Rv ATCC 35838 at 2 ug/ml. Type of experiment: functional, organism-based.
The subject of experiment [3] is Mycobacterium tuberculosis. The experiment is described as follows: Antimycobacterial activity against rifampicin resistant Mycobacterium tuberculosis H37Rv ATCC 35838. Type of experiment: functional.

Converted amounts (≈) assume the structure as drawn. The source made the active and inactive calls. No cut-off for these calls is given here.

As to `NNC(=O)c1ccncc1` [ISONIAZID], 1 µg/mL produced 100% inhibition in experiment [1].

As to `CO[C@H]1/C=C/O[C@@]2(C)Oc3c(C)c(O)c4c(O)c(c(/C=N/N5CCN(C)CC5)c(O)c4c3C2=O)NC(=O)/C(C)=C\C=C\[C@H](C)[C@H](O)[C@@H](C)[C@@H](O)[C@@H](C)[C@H](OC(C)=O)[C@@H]1C` [RIFAMPIN], the result in experiment [2] was inactive.

In experiment [3], `CCCCCC#Cc1c[nH]c(=O)nc1N` yielded an MIC50 of 12.5 µg/mL (≈ 60.9 µM).

The values above are taken from ChEMBL document CHEMBL3784999, “Investigation of 4-amino-5-alkynylpyrimidine-2(1H)-ones as anti-mycobacterial agents” (Bioorg Med Chem, 2016).
